Experimental data published in patent publication US4349544A, “Method for increasing the milk let down in mammals” (Ceskoslovenska akademie ved, priority 1976, dated 1982).
“And” between values parts separate entries of the source, which are not always exact repeats. Equal values may be shown once.

Experiments:
uterine horn = assay: In situ uterine horn contractions in estrogenized anesthetized female rats; format: in vivo, rat; settings: for A = amplitude of contractions as a % of maximal contraction induced by a tetanic dose of 10 mcg/kg oxytocin: equipotent i.v. doses (10 mcg/kg dCOMOT, Me-OT; 1 mcg/kg dOT, OT), n=5; for A = amplitude of contractions as a % of maximal contraction induced by a tetanic dose of 10 mcg/kg oxytocin / C = duration of the response: mean, SEM on next line; for D = the presence of tetany in % of the animal group (single maximal contraction lasting more than 10 min.) / B = contraction frequency per 10 min. in % / C = duration of the response: equipotent i.v. doses (10 or 1 mcg/kg); for B = contraction frequency per 10 min. in %: mean ± SEM
Procedure: 250-300 g body wt female rats (n=5 for each substance) were pre-treated for 3 days with 50 mcg di-ethylstilbestrol and 25 mg progesterone injected once daily i.m. in order to fully "estrogenize" the animals and have them all in the same functional state of myometrial reactivity. They were then anesthetized with urethane and prepared for in situ measurements of uterine horn contractions using Grass force-displacement treansducers and polygraph recording.

isolated rat uterus = assay: Biological activity A: isolated rat uterus; format: cell-based
Source text: | A = isolated rat uterus,

in situ rat uterus = assay: Biological activity B: in situ rat uterus; settings: in vivo
Source text: | B = in situ rat uterus,

[1] = test system: isolated rat mammary gland; assay: Biological activity D: isolated rat mammary gland; format: cell-based
Source text: | D = isolated rat mammary gland,

lactational activity = assay: Biological activity E: lactational activity in vivo
Source text: | E = lactational activity in vivo

antidiuretic in the rat = assay: Biological activity F: antidiuretic in the rat; settings: in vivo
Source text: | F = antidiuretic in the rat.

[2] = Partition coefficient between 2-butanol and 0.05% acetic acid; format: physicochemical; settings: 2-butanol / 0.05% acetic acid
Source text: K = partition coefficient between 2butanol and 0.05% acetic

healthy lactating sows = assay: Milk-let-down effect in healthy lactating sows; format: in vivo, sow
Procedure: The milk-let-down effect of 1-desamino-1-monocarba-([…](OMe))-oxytocin (hereinafter noted as dCOMOT) was tested in healthy lactating sows. The milk-let-down effect of 0.6 mg of dCOMOT injected intravenously lasted for from 4 to 9 hours.

[3] = test system: sows affected with hypogalactia or agalactia; format: in vivo, sow; settings: for Litter size (Mean ± s.d.) 7 days after treatment / Litter size (Mean ± s.d.) at day of treatment: dCOMOT 0.6 mg i.v. or i.m., oxytocin 30-50 I.U.; for sows failing to eject milk on the day after treatment: day after 1st treatment; for Mean piglet weight per litter at day of treatment / Litter size (Mean ± s.d.) at day of treatment: day of treatment (baseline); for side effects after treatment: in vivo
pregnant cows = assay: Induction of labor in pregnant Czech red-spotted cows; format: in vivo, cow; settings: for Duration of Labor: individual animals
Procedure: These experiments were carried out on 13 pregnant `Czech red-spotted` cows ranging from para I to para V. Average pregnancy in this breed is 290 days in duration.
Nine of the animals were 278-290 days after insemination but actual active labor had not yet begun. These animals received no other medication (Table 7).
Four of the animals were estimated to be near to term (cf. Table 4). 48 hours before the actual experiment they received 20 mg dexamethasone i.m. in an attempt to prepare the uterine cervix for active labor. In this group, in addition to close clinical follow-up, measurements were also made of: body temp., hemoglobin (Hb), glucose, total protein, inorganic P, Ca and Mg concentrations in the blood, both in the cow during the experiment and in the calf after birth, all by standard methods.
The standard i.v. (jugular) injection dosage of dCOMOT was 5 mg. In those cases in which labor lasted longer than 6 hours (cf. Results) in second injection was given.
The first group of 9 cows was managed under field conditions--in the barns of local farms. The four animals under more intensive study were kept in stalls set aside in a research building for one week prior to the onset of the experiment and for 3 weeks following delivery for further postnatal observations.

uterus of gilts = format: in vivo, gilt; settings: i.v., OT 1 to 5 IU, dCOMOT 0.2 to 1.0 mg
Procedure: Four gilts were used. The experiments stated about 24 hours after onset of their second or third estrus. Their cycle duration was in the range 19-22 days. They were anesthetized by i.v. administration of about 15 mg/kg Na thionembutal (in 5% (w/v) solution)--additional doses were required during the experiment. The uterus was exposed through a midline abdominal incision. A recording balloon-tipped catheter was inserted into each uterine horn through a small incision about 10 cm from the uterine body (Clay-Adams catheters, PE 90-0.86 mm i.d.×1.27 mm o.d., with a micro-balloon sealed over the tip with a double tie of 0000 silk suture). The recording system was filled with saline and each catheter was affixed to the uterine wall with 000 silk suture to prevent motion of the balloon in the lumen. The catheters exited through the mid-abdominal incision and were connected to P-23AC pressure transducers, thence to 7PL DC preamplifiers. When we were satisfied that the recording system was functioning the abdominal incision was closed about the catheters. […] Unfortunately there was not enough material for a full scale dose-response investigation.

[4] = sow, as in all other mammals; cited from earlier work
myometrium = settings: relative to oxytocin; cited from earlier work

Row | Compound | A = amplitude of contractions as a % of maximal contraction induced by a tetanic dose of 10 mcg/kg oxytocin (uterine horn) | D = the presence of tetany in % of the animal group (single maximal contraction lasting more than 10 min.) (uterine horn) | B = contraction frequency per 10 min. in % (uterine horn) | C = duration of the response (uterine horn) | Mean piglet weight per litter 7 days after treatment [3] | Litter size (Mean ± s.d.) 7 days after treatment [3] | sows failing to eject milk on the day after treatment [3] | Mean piglet weight per litter at day of treatment [3] | Litter size (Mean ± s.d.) at day of treatment [3] | side effects after treatment [3] | further results
1 | 1-deamino-OT [d OT] | 92% | 60% | 65 ± 6.2% | 46 min |  |  |  |  |  |  | 
2 | 1-desamino-1-monocarba-(2-Tyr(OMe))-oxytocin [Ic] | 65% | none | 60 ± 5.3% | 185 min | 2.64 ± 0.62 kg | 8.92 ± 1.85 | None | 1.44 ± 0.37 kg | 10.16 ± 1.65 | No side effects were observed | Biological activities A = isolated rat uterus (isolated rat uterus): 10 IU/mg; Biological activities B = in situ rat uterus (in situ rat uterus): 40 IU/mg; Biological activities D = isolated rat mammary gland [1]: 67 IU/mg; Biological activities E = lactational activity in vivo (lactational activity): 35 IU/mg; Biological activities F = antidiuretic in the rat (antidiuretic in the rat): 0.9 IU/mg; K = partition coefficient [2]: 3.15; duration of secondary oscillation in intramammary pressure (healthy lactating sows; 0.6 mg intravenously, healthy lactating sows): at least 4 hours; milk-let-down response after intramuscular injection (healthy lactating sows; intramuscular injection, compared with i.v.): approximately the same response; piglet weight gain during the observation period versus oxytocin group ([3]; 7 day observation period): gained more weight; health of calves (pregnant cows; Group I): All the calves were healthy; Mean duration of labor from the dCOMOT injection (pregnant cows; Group I, 9 non-pretreated cows, mean ± SEM): 14.25 ± 5.1 h; uterine tetany during induced labor (pregnant cows; Group I, non-pretreated cows): no evidence of uterine tetany whatsoever; response following injection (pregnant cows; Group I, non-pretreated cows, all cases): onset of regular uterinne contractions and increased tension in the udder; Duration of Labor (pregnant cows; Group I, non-pretreated cows, dCOMOT i.v.): 26 h and 34 h and 22.5 h and 6 h and 24.5 h and 10 h and 1.5 h and 7 h and 15 h; health of calves (pregnant cows; Group II): all calves were healthy; mean duration of labor (pregnant cows; Group II, 4 dexamethasone pretreated cows): 4.3 ± 2.1 h; Duration of Labor (pregnant cows; Group II, cows pretreated with 20 mg dexamethasone i.m. 48 hours before, listed as dCOMOT): 0.7 h and 8.2 h and 8.8 h and 8.6 h; uterine tetany during induced labor (pregnant cows; Group II, dexamethasone pretreated cows): In no cases was uterine tetany observed; start of active labor after injection (pregnant cows; Group II, dexamethasone pretreated cows, all cases): within minutes; Progeny Serum (pregnant cows; Group II, dexamethasone pretreated cows, individual calves): 7.4
3 | CC[C@H](C)[C@@H]1NC(=O)[C@H](Cc2ccc(O)cc2)NC(=O)[C@@H](N)CSSC[C@@H](C(=O)N2CCC[C@H]2C(=O)N[C@@H](CC(C)C)C(=O)NCC(N)=O)NC(=O)[C@H](CC(N)=O)NC(=O)[C@H](CCC(N)=O)NC1=O [oxytocin, reference compound] | 90% | 60% | 43 ± 3.2% | 10.4 min | 2.28 ± 0.44 kg | 9.10 ± 2.10 | Four out of 17 | 1.40 ± 0.22 kg | 10.00 ± 1.95 | No side effects were observed | duration of rapid increase of the intramammary pressure (healthy lactating sows; 5-10 I.U. intravenous, healthy lactating sows): 5 to 10 min; contraction rate after injection (baseline 6/10 min) (uterus of gilts): 8/10; response duration (uterus of gilts; anesthetized gilts): approximately 10 min; biochemical half-life of injected hormone [4]: only a few minutes
4 | [2-Tyr(OMe)]-OT [Me--OT] | 68% | none | 42 ± 5.4% | 20.6 min |  |  |  |  |  |  | contractile activity on the myometrium in comparison with the natural hormone (myometrium): one tenth; vasoconstrictor activity in the myometrium in comparison with the natural hormone (myometrium): one hundredth
